Laboratory results as given in paper PMC3679007 (PLoS ONE, 2013).
Where “and” joins values, the source holds several entries; their conditions need not be identical. Identical values can stand only once. Like-named read-outs stand apart in the source and are kept apart here.

How the values were obtained:
[1] = biological target: A/chicken/Vietnam/08/2004 neuraminidase (clade 1.1 wild type) (Influenza A virus (H5N1), UniProt Q6DPL2); assay type: biochemical, HPAI H5N1 avian influenza virus
[2] = biological target: A/chicken/Bangli/BBVD-563/2007 neuraminidase (clade 2.1 wild type) (Influenza A virus, UniProt F1SW80); assay type: biochemical, HPAI H5N1 avian influenza virus
[3] = tested on: A/chicken/Bangli/BBVD-562/2007, A/chicken/West Java Tangerang/PTB6/2008, A/chicken/West Java/Tja-31/2008, A/chicken/Payakumbuh/BPPVRII-307/2007 neuraminidases; assay type: biochemical
[4] = biological target: clade 2.1 HPAI H5N1 isolates from Indonesia (neuraminidase) (Influenza A virus, UniProt F5HQR3); assay type: biochemical, HPAI H5N1 avian influenza virus
[5] = biological target: A/chicken/Cambodia/CMB07.71LC3/2007 neuraminidase (Influenza A virus (A/chicken/Cambodia/CMB07.71LC3/2007(H5N1)), UniProt E1B5P8); assay type: biochemical, HPAI H5N1 avian influenza virus
[6] = biological target: A/duck/Cambodia/CMB07.72/2007 neuraminidase (Influenza A virus, UniProt E1B5P8); assay type: biochemical, HPAI H5N1 avian influenza virus
[7] = biological target: A/chicken/Cambodia/CMB07.71LC4/2007 neuraminidase (Influenza A virus (A/chicken/Cambodia/CMB07.71LC4/2007(H5N1)), UniProt E1B5P8); assay type: biochemical, HPAI H5N1 avian influenza virus
[8] = biological target: A/chicken/Cambodia/CMB07.71LC1/2007 neuraminidase (Influenza A virus, UniProt E1B5P8); assay type: biochemical, HPAI H5N1 avian influenza virus
[9] = biological target: A/chicken/Cambodia/CMB07.71LC2/2007 neuraminidase (Influenza A virus, UniProt E1B5P8); assay type: biochemical, HPAI H5N1 avian influenza virus
[10] = biological target: A/chicken/Suphanburi/2509/2004 neuraminidase (Influenza A virus (H5N1), UniProt Q5SDA6); assay type: biochemical, HPAI H5N1 avian influenza virus
[11] = biological target: A/chicken/Saraburi/10713/2005 neuraminidase (Influenza A virus (A/chicken/Saraburi/10713/2005(H5N1)), UniProt Q2LDC8); assay type: biochemical, HPAI H5N1 avian influenza virus
[12] = biological target: clade 1.1 HPAI H5N1 isolates from Thailand (neuraminidase) (Influenza A virus, UniProt Q5SDA6); assay type: biochemical, HPAI H5N1 avian influenza virus; conditions: read-out: IC50, Mean (SD)
[13] = biological target: A/chicken/Wates/126/2005 neuraminidase (clade 2.1 reference) (Influenza A virus (H5N1), UniProt Q1W1F4); assay type: biochemical, HPAI H5N1 avian influenza virus; conditions: read-out: IC50, Mean (SD)
[14] = tested on: clade 2.1 viruses circulating in Indonesia (neuraminidase); conditions: cited from earlier work
[15] = biological target: clade 1 isolates from Viet Nam and Cambodia (neuraminidase); conditions: cited from earlier work
[16] = in vivo; cited from earlier work
[17] = read-out: 60 min IC50, Preincubation step (+)
[18] = read-out: 60 min IC50, Preincubation step (−)

Q: Which “Ratio (−)/(+) of 60 min IC50s” value [1] does the source give for CCC(CC)[C@H](NC(C)=O)[C@@H]1[C@H](O)[C@@H](C(=O)O)C[C@H]1N=C(N)N [Peramivir, peramivir] here?
A: Its value is 8.9.

Q: And the IC50 [1, 17]?
A: Its IC50 is 0.7 nM.

Q: And the IC50 [1, 18]?
A: The IC50 was 6.2 nM.

Q: What about the “Ratio (−)/(+) of 60 min IC50s” value [2] of the same compound?
A: Its value is 9.

Q: And the IC50 [2, 17]?
A: Its IC50 is 0.6 nM.

Q: And the IC50 [2, 18]?
A: Its IC50 is 5.4 nM.

Q: What about the “Binding kinetics (in words)” value [3] of the same compound?
A: The value was “None of these viruses demonstrated loss of slow binding”.

Q: Which “Extreme High Outliers, number of viruses” value [4] does the source give for CC(=O)N[C@H]1[C@H]([C@H](O)[C@H](O)CO)OC(C(=O)O)=C[C@@H]1N=C(N)N [Zanamivir, zanamivir] here?
A: Its value is 0 (>7.2) and 0 (>5.6).

Q: What about the “Binding kinetics (in words)” value [3] of the same compound?
A: Its value is “None of these viruses demonstrated loss of slow binding”.

Q: Which IC50 [5] does the source give for CCOC(=O)C1=C[C@@H](OC(CC)CC)[C@H](NC(C)=O)[C@@H](N)C1 [Oseltamivir, oseltamivir] here?
A: The IC50 was 0.51 nM.

Q: And the IC50 [6]?
A: The IC50 was 0.65 nM.

Q: What about the IC50 [7] of the same compound?
A: Its IC50 is 0.75 nM.

Q: And the IC50 [8]?
A: Its IC50 is 0.77 nM.

Q: And the IC50 [9]?
A: Its IC50 is 0.78 nM.

Q: What about the IC50 [10] of the same compound?
A: The IC50 was 0.61 nM.

Q: What about the IC50 [11] of the same compound?
A: The IC50 was 0.68 nM.

Q: And the IC50 [12]?
A: The IC50 was 0.97 nM.

Q: What about the IC50 ([4]; read-out: Extreme High Outliers, IC50 cut-off) of the same compound?
A: Its IC50 is over 63.7 nM.

Q: What about the IC50 ([4]; read-out: IC50, IQR (25th-75th percentile)) of the same compound?
A: Its IC50 is 21.2 to 28.2 nM and 20.4 to 26.4 nM.

Q: What about the IC50 ([4]; read-out: IC50, Median) of the same compound?
A: Its IC50 is 24.9 nM and 24.4 nM.

Q: What about the IC50 ([4]; read-out: IC50, range) of the same compound?
A: Its IC50 is 10.6 to 349 nM and 12.6 to 62.4 nM.

Q: What about the IC50 ([4]; read-out: IC50s of extreme outliers) of the same compound?
A: Its IC50 is 63 to 350 nM.

Q: What about the IC50 ([4]; read-out: IC50s of many of the outliers) of the same compound?
A: Its IC50 is over 50 nM.

Q: What about the IC50 ([4]; read-out: Mean and median IC50) of the same compound?
A: The IC50 was about 25 nM.

Q: What about the IC50 ([4]; read-out: Median IC50) of the same compound?
A: The IC50 was 25 nM.

Q: What about the IC50 ([4]; read-out: Mild High Outliers, IC50 cut-off) of the same compound?
A: The IC50 was over 42.4 nM.

Q: What about the IC50 [13] of the same compound?
A: The IC50 was 15.9 nM and 19.8 nM.

Q: And the “Binding kinetics (in words)” value [2]?
A: The value was “partial loss of slow binding, and faster dissociation”.

Q: And the IC50 [2, 17]?
A: Its IC50 is 19.6 nM.

Q: What about the IC50 [2, 18] of the same compound?
A: The IC50 was 21.4 nM.

Q: And the “Binding kinetics (in words)” value [3]?
A: Its value is “no longer slow binding”.

Q: What about the IC50 [14] of the same compound?
A: The IC50 was 11 nM and 11.5 nM.

Q: What about the IC50 [15] of the same compound?
A: Its IC50 is 0.5 nM.

Q: What about the Levels in plasma [16] of the same compound?
A: Its Levels in plasma is 400 to 1200 nM.

Q: What about the Levels in saliva [16] of the same compound?
A: The Levels in saliva was “less than 5 % of plasma levels”.
